From patent US20060128736A1, “Camptothecin-carboxylate formulations” (priority 2002, published 2006)

Assays:
[1] = Fluorescence anisotropy of CPT in lipid suspensions; assay type: physicochemical; conditions: 10 mM Tris-buffer pH 7.5, 10% trehalose
Description: These finding are corroborated by fluorescence anisotropy measurements of the CPT. In this experiment, an increase of the fluorescence anisotropy is expected if the fluorophore is inserted into a liposome and thus its mobility is decreased. […] DOTAP and DOPC both comprise unsaturated fatty acid chains, but DOTAP is positively charged while DOPC is neutral.
For efficient binding, in addition to charge, the phase state of the fatty acid chains is important. […] DOTAP has its main phase transition (Tm) near 37° C. […] Below that temperature the fatty acid chains are in the gel phase (a crystalline like state) and above they are in the liquid crystalline (fluid-like) state.
FIG. 9: Fluorescence anisotropy measurements of CPT in lipid suspensions from DOTAP and DOPC and as prepared by different methods. […]
FIG. 10: Comparison of fluorescence anisotropy measurements with DOTAP and DMTAP Measurements with CPT and with 10-OH-CPT are shown. […]
In order to get further information on the CPT-lipid interaction form an independent method, fluorescence anisotropy measurements were performed. […] The fluorescence anisotropy was taken as a measure for the binding strength of CPT to the liposome. […]
Fluorescence anisotropy measurements from liposomes with two different cationic lipids, DOTAP and DMTAP, and two different CPT drugs (CPT and 10-OH-CPT) are compared. […]

A-375 melanoma [2] = assay: Therapeutic efficacy of LipoCam in A-375 melanoma of nude mice (FIG. 12); assay type: in vivo, NMRI-nude mice; conditions: iv three times a week for three weeks at equitoxic doses, start at about 100 mm^3
Description: (§1) NMRI-nude mice were purchased from Elevage Janvier and housed in isolated ventilated cages under save environmental conditions (SPF facility, 22° C., 30-70% humidity, 12 h light/dark cycle) with food and water ad libitum. Experimental design was reviewed and approved by local government.
(§2) Tumor cells (A-375 human melanoma cell line, ATCC Nr.: CRL-1619) were grown as described in the data sheet supplied by ATCC. Tumor cells (5×10^6 in PBS) were inoculated s.c. in the right dorsal flank of mice in a volume of 50 μl on day 0.
Mice were assigned to the experimental groups (8 animals per cage), housed and handled (including monitoring of the body weight gain) at least five days before tumor inoculation (=day −6 to 0). […] Equitoxic doses of the compounds were determined in separate experiments, where toxicity was evaluated based on haematological parameters, body weight and animal clinical observations (see Tab. 3). […] Animals were clinically monitored during the whole experiment, monitoring of tumor size was performed three times a week. The tumor dimensions were measured by caliper and the tumor size was calculated according to the following formula: V=πL W^2/6 (L=greatest length, W=width of perpendicular axis). The body weight of individual animals was monitored at least twice during handling period, after tumor inoculation and after start of treatment. […]

A-375 melanoma [3] = assay: Therapeutic efficacy of LipoCam IV and VI in A-375 melanoma of nude mice (FIG. 13); assay type: in vivo, NMRI-nude mice; conditions: 1 and 2 mg/kg iv three times a week for three weeks
Description: as §1, §2
Mice were assigned to the experimental groups (8 animals per cage), housed and handled (including monitoring of the body weight gain) at least five days before tumor inoculation (=day −6 to 0). […] Toxicity was evaluated based on hematological parameters, body weight and animal clinical observations. […]
Animals were clinically monitored during the whole experiment, monitoring of tumor size was performed three times a week. The tumor dimensions were measured by caliper and the tumor size was calculated according to the following formula: V=πL W^2/6 (L=greatest length, W=width of perpendicular axis). The body weight of individual animals was monitored at least twice during handling period, after tumor inoculation and after start of treatment. […] The number of red and white blood cells and platelets were determined using an automated cell counter (Abbott Cell Dyn 3500).

For `CC[C@@]1(O)C(=O)OCc2c1cc1n(c2=O)Cc2cc3cc(O)ccc3nc2-1` [Formulation 10-OH-CPT, 10-Hydroxy-camptothecin], the “Fluorescence anisotropy (measure of binding strength of CPT to the liposome)” value [1] was “higher binding efficacy”.
In the case of `CC[C@@](O)(C(=O)[O-])c1cc2n(c(=O)c1CO)Cc1cc3ccccc3nc1-2.[Na+]` [CPT-Na-Carboxylate], the “Anti-tumor effect (tumor volume)” value (A-375 melanoma [2]) is reported as “only a retardation”.
For `CCC(O)(C(=O)O)c1cc2n(c(=O)c1CO)Cc1cc3ccccc3nc1-2` (stereo not shown) [CPT-carboxylate], the “Fluorescence anisotropy (measure of binding strength of CPT to the liposome)” value [1] was “zero” and the “Order of antitumor efficacy” value (A-375 melanoma [3]) was “LipoCam IV (2 mg/kg)>LipoCam VI (1 mg/kg)>CPT-carboxylate (2 mg/kg)>CPT-carboxylate (1 mg/kg)”.
